In US20240299395A1, “COMBINATION THERAPIES COMPRISING WEE1 INHIBITORS AND DNA DAMAGE RESPONSE (DDR) INHIBITORS” (Recurium IP Holdings, LLC, priority 2021, published 2024):
Like-named read-outs stand apart in the source and are kept apart here.

How the values were obtained:
Assay type in all cases: cell-based
HL-60 (AML) cell line = experiment: CellTiter-Glo (CTG) cell viability, HL-60; conditions: for single agent activity (figure legend): HL-60, FIGS. 9-11, 72 h
Method: (§1) 20,000 MDA-MB-231 cells were incubated in a 96 well plate as a triplicate with 500 nM of ZN-c3 and 10 nM of CHK inhibitor or 700 nM of ATR inhibitor as a single agent or the combination of both for 72 h. 20,000 H23 cells were incubated in a 96 well plate as a triplicate with 150 nM of ZN-c3 and 5 nM of CHK inhibitor or 500 nM of ATR inhibitor as a single agent or the combination of both for 72 h. 10,000 MV4-11 cells were incubated in a 96 well plate as a triplicate with 400 nM of ZN-c3 and 2 nM of CHK inhibitor or 2000 nM of ATM inhibitor as a single agent or the combination of both for 72 h. 20,000 THP-1 cells were incubated in a 96 well plate as a triplicate with 600 nM of ZN-c3 and 4 nM of CHK inhibitor or 1000 nM of ATR inhibitor as a single agent or the combination of both for 72 h. 10,000 HL-60 cells were incubated in a 96 well plate as a triplicate with 750 nM of ZN-c3 and 15 nM of CHK inhibitor or 2000 nM of ATM inhibitor as a single agent or the combination of both for 72 h. 10,000 LNCaP cells were incubated in a 96 well plate as a triplicate with 500 nM of ZN-c3 and 10 nM of CHK inhibitor or 1000 nM of ATM inhibitor as a single agent or the combination of both for 72 h. For each cell line, the cell viability was assessed using a CellTiter-Glo® (CTG) assay.
(§2) 10,000 MV4-11 cells were incubated in a 96 well plate as a triplicate with 2 nM of ZN-d5, 400 nM of ZN-c3 and 2 nM of CHK inhibitor or 2000 nM of ATM inhibitor or 150 nM of ATR inhibitor as a single, double or triple combination for 72 h. 20,000 THP-1 cells were incubated in a 96 well plate as a triplicate with 100 nM of ZN-d5, 600 nM of ZN-c3 and 4 nM of CHK inhibitor or 1000 nM of ATM inhibitor or 1000 nM of ATR inhibitor as a single, double or triple combination for 72 h. 10,000 HL-60 cells were incubated in a 96 well plate as a triplicate with 75 nM of ZN-d5, 750 nM of ZN-c3 and 15 nM of CHK inhibitor or 2000 nM of ATM inhibitor or 1000 nM of ATR inhibitor as a single, double or triple combination for 72 h. For each cell line, the cell viability was assessed using a CellTiter-Glo® (CTG) assay.

THP-1 (AML) cell line = experiment: CellTiter-Glo (CTG) cell viability, THP-1; conditions: for single agent activity (figure legend): THP-1, FIGS. 7-8, 72 h
Method: as §1, §2

MV4-11 (AML) cell line = experiment: CellTiter-Glo (CTG) cell viability, MV4-11; conditions: for single agent activity (figure legend): MV4-11, FIGS. 5-6, 72 h
Method: as §1, §2

[1] = tested on: LNCaP (Prostate) cell line; experiment: CellTiter-Glo (CTG) cell viability, LNCaP; conditions: for single agent activity (figure legend): FIGS. 12-13, 72 h
Method: as §1

H23 (NSCLC) cell line = experiment: CellTiter-Glo (CTG) cell viability, H23; conditions: for single agent activity (figure legend): H23, FIGS. 3-4, 72 h
Method: as §1

[2] = tested on: MDA-MB-231 (TNBC) cell line; experiment: CellTiter-Glo (CTG) cell viability, MDA-MB-231; conditions: for single agent activity (figure legend): MDA-MB-231, FIGS. 1-2, 72 h
Method: as §1

[3] = Table 4, 75 nM ZN-d5, 750 nM ZN-c3, 15 nM CHK inhibitor, 2000 nM ATM inhibitor, 1000 nM ATR inhibitor, single, double or triple combination, 72 h
[4] = Table 4, 100 nM ZN-d5, 600 nM ZN-c3, 4 nM CHK inhibitor, 1000 nM ATM inhibitor, 1000 nM ATR inhibitor, single, double or triple combination, 72 h
[5] = Table 4, 2 nM ZN-d5, 400 nM ZN-c3, 2 nM CHK inhibitor, 2000 nM ATM inhibitor, 150 nM ATR inhibitor, single, double or triple combination, 72 h
[6] = Table 1, 150 nM ZN-c3, 5 nM CHK inhibitor, single agent or combination, 72 h
[7] = Table 1, 500 nM ZN-c3, 10 nM CHK inhibitor, single agent or combination, 72 h
[8] = Homo sapiens, HL-60, 72 h, Table 4, 75 nM ZN-d5, 750 nM ZN-c3, 15 nM CHK inhibitor, 2000 nM ATM inhibitor, 1000 nM ATR inhibitor, single, double or triple combination, 72 h, read-out: HL60 % Inhibition
[9] = Homo sapiens, THP-1, 72 h, Table 4, 100 nM ZN-d5, 600 nM ZN-c3, 4 nM CHK inhibitor, 1000 nM ATM inhibitor, 1000 nM ATR inhibitor, single, double or triple combination, 72 h
[10] = Homo sapiens, MV4-11, 72 h, Table 4, 2 nM ZN-d5, 400 nM ZN-c3, 2 nM CHK inhibitor, 2000 nM ATM inhibitor, 150 nM ATR inhibitor, single, double or triple combination, 72 h

## CN(C)CCCOc1ccc(-c2ccc3ncc4c(c3c2)n(C2CCOCC2)c(=O)n4C)cn1 [ATMi, AZD0156]
HL-60 (AML) cell line
  single agent activity (figure legend): practically no activity
HL-60 (AML) cell line; Table 3, 750 nM ZN-c3, 2000 nM ATM inhibitor, single agent or combination, 72 h
  HL60 % Inhibition: 3%
HL-60 (AML) cell line; [3]
  HL60 % Inhibition: 2.95%
THP-1 (AML) cell line
  single agent activity (figure legend): single agent activity was observed
THP-1 (AML) cell line; [4]
  THP % Inhibition: 19.52%
MV4-11 (AML) cell line
  single agent activity (figure legend): single agent activity was observed
MV4-11 (AML) cell line; Table 3, 400 nM ZN-c3, 2000 nM ATM inhibitor, single agent or combination, 72 h
  MV4; 11 % Inhibition: 18%
MV4-11 (AML) cell line; [5]
  MV4; 11 % Inhibition: 18.48%
[1]; LNCaP
  single agent activity (figure legend): single agent activity was observed
[1]; Table 3, 500 nM ZN-c3, 1000 nM ATM inhibitor, single agent or combination, 72 h
  LNCaP % Inhibition: 14%

## CNCc1ccc(-c2cc(-c3nc(-c4ccc(S(=O)(=O)C(C)C)cc4)cnc3N)on2)cc1 [ATRi, Berzosertib]
HL-60 (AML) cell line
  single agent activity (figure legend): single agent activity was observed
HL-60 (AML) cell line; Homo sapiens, HL-60, 72 h, Table 2, 750 nM ZN-c3, ATR inhibitor (1000 nM), single agent or combination, 72 h, read-out: HL60 % Inhibition
  inhibition at 1 µM: 15%
HL-60 (AML) cell line; [3]
  HL60 % Inhibition: 15.91%
THP-1 (AML) cell line; Table 2, 600 nM ZN-c3, 1000 nM ATR inhibitor, single agent or combination, 72 h
  THP % Inhibition: 37%
THP-1 (AML) cell line; [4]
  THP % Inhibition: 36.93%
H23 (NSCLC) cell line
  single agent activity (figure legend): single agent activity was observed
H23 (NSCLC) cell line; Table 2, 150 nM ZN-c3, 500 nM ATR inhibitor, single agent or combination, 72 h
  H23 % Inhibition: 35%
MV4-11 (AML) cell line; [5]
  MV4; 11 % Inhibition: 13.99%
[2]
  single agent activity (figure legend): single agent activity was observed
[2]; Table 2, 500 nM ZN-c3, 700 nM ATR inhibitor, single agent or combination, 72 h
  MDA-MB-231 % Inhibition: 33%

## COc1cccc(OCCCN)c1-c1cc(Nc2cnc(C#N)cn2)n[nH]1 [CHKi, Prexasertib]
HL-60 (AML) cell line
  single agent activity (figure legend): no activity
HL-60 (AML) cell line; Table 1, 750 nM ZN-c3, 15 nM CHK inhibitor, single agent or combination, 72 h
  HL60 % Inhibition: 0%
HL-60 (AML) cell line; [3]
  HL60 % Inhibition: 0%
THP-1 (AML) cell line; Table 1, 600 nM ZN-c3, 4 nM CHK inhibitor, single agent or combination, 72 h
  THP % Inhibition: 32%
THP-1 (AML) cell line; [4]
  THP % Inhibition: 32.29%
H23 (NSCLC) cell line
  single agent activity (figure legend): practically no activity
H23 (NSCLC) cell line; [6]
  H23 % Inhibition: 1%
MV4-11 (AML) cell line
  single agent activity (figure legend): no activity
MV4-11 (AML) cell line; Table 1, 400 nM ZN-c3, 2 nM CHK inhibitor, single agent or combination, 72 h
  MV4; 11 % Inhibition: 0%
MV4-11 (AML) cell line; [5]
  MV4; 11 % Inhibition: 0%
[2]
  single agent activity (figure legend): single agent activity was observed
[2]; [7]
  MDA-MB-231 % Inhibition: 26%
[1]; LNCaP
  single agent activity (figure legend): single agent activity was observed
[1]; [7]
  LNCaP % Inhibition: 14%

## C=CCn1c(=O)c2cnc(Nc3ccc(N4CCN(C)CC4)cc3)nc2n1-c1ccc2c(n1)[C@@](O)(CC)CC2 [ZN-c3]
HL-60 (AML) cell line
  single agent activity (figure legend): single agent activity was observed
HL-60 (AML) cell line; Homo sapiens, HL-60, 72 h, Table 1, 750 nM ZN-c3, 15 nM CHK inhibitor, single agent or combination, 72 h, read-out: HL60 % Inhibition
  inhibition at 0.75 µM: 25%
HL-60 (AML) cell line; Homo sapiens, HL-60, 72 h, Table 3, 750 nM ZN-c3, 2000 nM ATM inhibitor, single agent or combination, 72 h, read-out: HL60 % Inhibition
  inhibition at 0.75 µM: 25%
HL-60 (AML) cell line; [8]
  inhibition at 0.75 µM: 25.5%
THP-1 (AML) cell line; Homo sapiens, THP-1, 72 h, Table 1, 600 nM ZN-c3, 4 nM CHK inhibitor, single agent or combination, 72 h
  inhibition at 0.6 µM: 18%
THP-1 (AML) cell line; Homo sapiens, THP-1, 72 h, Table 2, 600 nM ZN-c3, 1000 nM ATR inhibitor, single agent or combination, 72 h
  inhibition at 0.6 µM: 18%
THP-1 (AML) cell line; [9]
  inhibition at 0.6 µM: 18.1%
THP-1 (AML) cell line
  single agent activity (figure legend): single agent activity was observed
H23 (NSCLC) cell line
  single agent activity (figure legend): single agent activity was observed
H23 (NSCLC) cell line; [6]
  inhibition at 0.15 µM: 22%
MV4-11 (AML) cell line; Homo sapiens, MV4-11, 72 h, Table 1, 400 nM ZN-c3, 2 nM CHK inhibitor, single agent or combination, 72 h
  inhibition at 0.4 µM: 49%
MV4-11 (AML) cell line; Homo sapiens, MV4-11, 72 h, Table 3, 400 nM ZN-c3, 2000 nM ATM inhibitor, single agent or combination, 72 h
  inhibition at 0.4 µM: 49%
MV4-11 (AML) cell line; [10]
  inhibition at 0.4 µM: 49.2%
MV4-11 (AML) cell line
  single agent activity (figure legend): single agent activity was observed
[2]; Homo sapiens, MDA-MB-231, Table 1, 500 nM ZN-c3, 10 nM CHK inhibitor, single agent or combination, 72 h
  inhibition at 0.5 µM: 35%
[2]
  single agent activity (figure legend): single agent activity was observed
[1]; Homo sapiens, LNCaP, Table 1, 500 nM ZN-c3, 10 nM CHK inhibitor, single agent or combination, 72 h
  inhibition at 0.5 µM: 24%
[1]; LNCaP
  single agent activity (figure legend): single agent activity was observed

## CC1(C)CCC(CN2CCN(c3ccc(C(=O)NS(=O)(=O)c4ccc(NC[C@H]5CC[C@](C)(O)CC5)c([N+](=O)[O-])c4)c(Oc4cnc5[nH]ccc5c4)c3)CC2)=C(C23CC(C(F)F)(C2)C3)C1 [ZN-d5, 2-((1H-pyrrolo[2,3-b]pyridin-5-yl)oxy)-4-(4-((2-(3-(difluoromethyl)bicyclo[1.1.1]pentan-1-yl)-4,4-dimethylcyclohex-1-en-1-yl)methyl)piperazin-1-yl)-N-((4-((((1r,4r)-4-hydroxy-4-methylcyclohexyl)methyl)amino)-3-nitrophenyl)sulfonyl)benzamide]
HL-60 (AML) cell line; [8]
  inhibition at 0.075 µM: 37.6%
THP-1 (AML) cell line; [9]
  inhibition at 0.1 µM: 2.6%
MV4-11 (AML) cell line; [10]
  inhibition at 0.002 µM: 8.44%
